Measured values from patent US5095016A, “Benzopyran compounds, processes for their production and pharmaceutical compositions” (Kaken Pharmaceutical Co., Ltd., priority 1989, dated 1992).
Where two headings read alike, the source gives them in different places.

Experiments:
Potassium channel = biological target: T1, Potassium channel (Rattus norvegicus, UniProt Q63563); assay: Potassium channel activating action: relaxation of KCl-contracted rat aorta spiral specimen; conditions: for inhibition at 10 µM: 10^-5 mol; for inhibition at 1 µM: 10^-6 mol; for inhibition at 0.1 µM: 10^-7 mol
T1 construct: was extracted and formed into a spiral specimen; from tissue; host or cells: aorta of male Wistar rat (spiral strip)
Description: The aorta of a male Wister rat having a body weight of about 240 g was extracted and formed into a spiral specimen, which was suspended under a load of 0.5 g in a Krebs.Henselate solution (37° C.) saturated with a gas mixture of 95% oxygen+5% carbon dioxide. Then, 20 mM or 60 mM potassium chloride was added thereto, and the contraction reaction was measured by means of an isometric transducer (manufactured by Nippon Koden K.K.). When the contraction reaction by potassium chloride reached the maximum, a compound of the present invention was cumulatively added, whereupon the relaxation reaction was measured. The relaxation reaction due to the drug was determined as a relaxation rate relative to the maximum contraction by potassium chloride.

[1] = Acute toxicity test (oral); conditions: mouse, in vivo, male mice, mortality after 72 hours
Description: For an acute toxicity test, ten male mice with body weights of 22 to 25 g were used as one group, and a compound of the present invention was orally administered at a dose corresponding to the body weight. From the mortality after 72 hours, LD50 was calculated by an area method.

[2] = system: spontaneously hypertensive rat (SHR); assay: Blood pressure lowering activity in spontaneously hypertensive rats (oral); type: in vivo
Description: A male spontaneously hypertensive rat (SHR) of 20 weeks old was put in a cage and heated in a heating box at 45° C. for 5 minutes. SHR heated for 5 minutes was fixed to a measuring board, and a cuff for pressurizing and for blood pressure measurement was attached to the tail. As the pressurizing started, the heart rate was measured. After the rat became quiet, the maximum blood pressure was measured.
On the other hand, a compound of the present invention was dissolved or suspended in a 0.5% methyl cellulose solution and orally administered. Then, the blood pressure was measured upon expiration of 1 hour, 3 hours and 6 hours after the administration. [formula]

[3] = 20 mM KCl, read-out: Relaxation rate (%) in 20 mM KCl
[4] = 60 mM KCl, read-out: Relaxation rate (%) in 60 mM KCl

T1 sequence (Q63563 1-1545 isoform Q63563-2): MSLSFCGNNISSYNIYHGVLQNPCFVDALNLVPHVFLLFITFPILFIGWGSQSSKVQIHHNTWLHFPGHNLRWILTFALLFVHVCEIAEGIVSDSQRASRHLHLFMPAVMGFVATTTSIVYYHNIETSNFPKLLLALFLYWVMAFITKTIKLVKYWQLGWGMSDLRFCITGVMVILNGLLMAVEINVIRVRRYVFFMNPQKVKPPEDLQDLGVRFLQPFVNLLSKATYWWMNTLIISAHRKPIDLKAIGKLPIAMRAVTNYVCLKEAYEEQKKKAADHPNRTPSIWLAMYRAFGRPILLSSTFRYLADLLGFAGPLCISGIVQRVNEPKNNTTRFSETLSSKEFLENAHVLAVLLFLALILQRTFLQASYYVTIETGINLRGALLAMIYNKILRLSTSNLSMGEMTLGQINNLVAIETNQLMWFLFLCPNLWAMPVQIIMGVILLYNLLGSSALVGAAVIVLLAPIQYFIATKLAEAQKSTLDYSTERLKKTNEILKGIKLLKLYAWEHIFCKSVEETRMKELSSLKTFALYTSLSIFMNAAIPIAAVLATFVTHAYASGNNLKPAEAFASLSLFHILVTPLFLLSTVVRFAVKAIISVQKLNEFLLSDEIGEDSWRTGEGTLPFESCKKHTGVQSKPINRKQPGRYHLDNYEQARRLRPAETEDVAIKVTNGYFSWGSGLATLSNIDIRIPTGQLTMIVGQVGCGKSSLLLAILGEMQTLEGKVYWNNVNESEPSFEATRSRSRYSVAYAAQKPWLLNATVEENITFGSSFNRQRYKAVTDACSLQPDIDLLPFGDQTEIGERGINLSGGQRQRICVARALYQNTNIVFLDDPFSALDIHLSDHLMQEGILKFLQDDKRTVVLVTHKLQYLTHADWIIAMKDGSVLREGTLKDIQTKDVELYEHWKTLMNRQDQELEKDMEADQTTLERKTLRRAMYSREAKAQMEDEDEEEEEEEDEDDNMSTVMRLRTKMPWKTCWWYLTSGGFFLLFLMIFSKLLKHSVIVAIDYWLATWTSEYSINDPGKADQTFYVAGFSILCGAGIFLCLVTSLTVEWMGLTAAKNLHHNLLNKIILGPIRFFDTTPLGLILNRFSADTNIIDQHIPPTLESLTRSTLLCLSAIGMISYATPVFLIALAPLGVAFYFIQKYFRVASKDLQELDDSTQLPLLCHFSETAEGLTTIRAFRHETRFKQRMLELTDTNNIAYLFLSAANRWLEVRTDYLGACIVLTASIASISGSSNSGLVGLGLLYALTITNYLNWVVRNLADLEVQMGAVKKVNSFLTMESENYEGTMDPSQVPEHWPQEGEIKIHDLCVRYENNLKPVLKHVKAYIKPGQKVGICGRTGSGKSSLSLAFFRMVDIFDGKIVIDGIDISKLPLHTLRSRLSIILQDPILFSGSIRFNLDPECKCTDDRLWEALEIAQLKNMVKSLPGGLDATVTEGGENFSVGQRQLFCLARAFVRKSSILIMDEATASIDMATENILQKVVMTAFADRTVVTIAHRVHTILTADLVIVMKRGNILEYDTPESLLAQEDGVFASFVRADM
T1 sequence (Q63664 whole entry partner): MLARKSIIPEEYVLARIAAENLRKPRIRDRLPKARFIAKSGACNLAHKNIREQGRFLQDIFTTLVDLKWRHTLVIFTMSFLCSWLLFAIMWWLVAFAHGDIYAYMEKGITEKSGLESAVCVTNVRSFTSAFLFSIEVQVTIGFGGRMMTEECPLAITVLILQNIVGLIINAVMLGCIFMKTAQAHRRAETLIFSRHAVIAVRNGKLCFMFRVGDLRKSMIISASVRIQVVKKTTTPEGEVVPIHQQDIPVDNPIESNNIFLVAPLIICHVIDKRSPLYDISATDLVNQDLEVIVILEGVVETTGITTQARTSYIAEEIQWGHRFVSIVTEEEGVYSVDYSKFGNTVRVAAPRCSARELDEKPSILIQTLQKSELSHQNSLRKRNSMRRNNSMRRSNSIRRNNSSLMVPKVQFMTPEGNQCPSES

Compound | inhibition at 10 µM (Potassium channel; [3]) [%] | inhibition at 1 µM (Potassium channel; [3]) [%] | inhibition at 0.1 µM (Potassium channel; [3]) [%] | inhibition at 0.01 µM (Potassium channel; [3]) [%] | inhibition at 10 µM (Potassium channel; [4]) [%] | inhibition at 1 µM (Potassium channel; [4]) [%] | inhibition at 0.1 µM (Potassium channel; [4]) [%] | inhibition at 0.01 µM (Potassium channel; [4]) [%] | LD50 at 72 h [1] [mg/kg] | Change (%) from the value before administration ([2]; 0.1 mg/kg, 1 hr later) [%] | Change (%) from the value before administration ([2]; 0.1 mg/kg, 3 hrs later) [%] | Change (%) from the value before administration ([2]; 0.1 mg/kg, 6 hrs later) [%] | Change (%) from the value before administration ([2]; 0.3 mg/kg, 1 hr later) [%] | Change (%) from the value before administration ([2]; 0.3 mg/kg, 3 hrs later) [%] | Change (%) from the value before administration ([2]; 3 mg/kg, 1 hr later) [%] | Change (%) from the value before administration ([2]; 3 mg/kg, 3 hrs later) [%] | Change (%) from the value before administration ([2]; 3 mg/kg, 6 hrs later) [%] | Change (%) from the value before administration ([2]; 10 mg/kg, 1 hr later) [%] | Change (%) from the value before administration ([2]; 10 mg/kg, 3 hrs later) [%] | Change (%) from the value before administration ([2]; 10 mg/kg, 6 hrs later) [%] | also measured
CC(=NC#N)N[C@@H]1c2cc(C#N)ccc2OC(C)(C)[C@H]1O (relative stereo) [Example 2, 6-cyano-3,4-dihydro-2,2-dimethyl-trans-4-[(N-cyano-acetimidoyl)amino]-2H-benzo[b]pyran-3-ol] | 100 | 95.6 | 30.6 | 6.8 | 5.6 | 1 | 0 | 0 | ≥ 2000 | 10 | 5 | 0 | 26 | 17 | 60 | 56 | 58 | 64 | 61 | 61 | Change (%) from the value before administration ([2]; 0.3 mg/kg, 6 hrs later): 12%; Change (%) from the value before administration ([2]; 1 mg/kg, 1 hr later): 42%; Change (%) from the value before administration ([2]; 1 mg/kg, 3 hrs later): 45%; Change (%) from the value before administration ([2]; 1 mg/kg, 6 hrs later): 26%
CC(=NC#N)NC1=CC(C)(C)Oc2ccc(C#N)cc21 [Example 34, 6-cyano-2,2-dimethyl-4-[(N-cyano-acetimidoyl)amino]-2H-benzo[b]pyran] | 100 | 100 | 94.3 | 28.7 | 21.8 | 13.2 | 4.5 | 0 | ≥ 2000 | 12 | 5 | 0 | 41 | 45 | 65 | 63 | 63 | 64 | 64 | 65 | Change (%) from the value before administration ([2]; 0.3 mg/kg, 6 hrs later): 23%; Change (%) from the value before administration ([2]; 1 mg/kg, 1 hr later): 62%; Change (%) from the value before administration ([2]; 1 mg/kg, 3 hrs later): 60%; Change (%) from the value before administration ([2]; 1 mg/kg, 6 hrs later): 57%
COC(=O)C1=C(C)NC(C)=C(C(=O)OCCN(C)Cc2ccccc2)C1c1cccc([N+](=O)[O-])c1 (stereo not drawn) [Nicardipin, reference compound] | – | – | – | – | – | – | – | – | – | – | – | – | – | – | 20 | 8 | 0 | 40 | 9 | 7 | –
